Reference: US8771741B2, “In vivo photodynamic therapy of cancer via a near infrared agent encapsulated in calcium phosphate nanoparticles” (The Penn State Research Foundation, priority 2009, dated 2014)
Entries after “also recorded” stand apart in the source; their conditions may differ. Where a name gives a salt, the structure may show the parent alone. Values belong to the compound of their own block, whether it stands above or below them.

Experiments:
[1] = test system: MCF-7 breast adenocarcinoma cells; test: Caspase-3/7 apoptosis assay, drug sensitive cells; assay type: cell-based, human; conditions: MCF-7, 24 hrs
Procedure: (§1) Human MCF-7 breast adenocarcinoma cells and the adriamycin resistant MCF-7-ADR(NCl-AdrR) were grown at 37° C. in RPMI 1640 medium supplemented with 10% fetal bovine serum (FBS). MCF-7 and MCF-7-ADR cells were seeded to a density of 6×10^3 cells/well and grown for 48 hrs in culture medium containing 10% FBS. Cells were then treated with Cer10-CPNP or control CPNP for 24 hrs in media containing 1% fetal bovine serum. Caspase-3/7 enzymatic activity levels were then measured using the Apo-ONE Homogenous Caspase-3/7 Assay (Promega) and performed following the instructions of the manufacturer. The kit provides a caspase-3/7 substrate and Rhodamine 110, which is cleaved by enzymatically active caspase-3/7 resulting in a fluorogenic cleavage product.

[2] = test system: MCF-7/ADR (adriamycin resistant) breast adenocarcinoma cells; test: Caspase-3/7 apoptosis assay, drug resistant cells; assay type: cell-based, human; conditions: 24 hrs
Procedure: as §1

Solubility in water = assay type: physicochemical
[3] = Quantum efficiency of ICG; assay type: physicochemical; conditions: PBS pH 7.4, reference HITC
Procedure: Each measurement was conducted in duplicate on two separate occasions using freshly prepared stock solutions and a new set of standard data.

animal subjects = conditions: cited from earlier work
[4] = Fluorescence emission of ICG-CPNPs versus free ICG; assay type: physicochemical; conditions: aqueous solution, pH 7; data not shown
Text: The fluorescence spectrum of the dye-doped CPNPs was compared to that of the corresponding free ICG dye under identical optical conditions (785 nm excitation). […] These undesirable phenomena result in peak transformations or spectral shifts, respectively, which are not observed for the embedded ICG emission.
For all optical measurements, samples were placed in a low-volume fluorescence cuvette (9F-SOG-10-GL14-S; Starna Cells, Inc., Atascadero, Calif.), and held by a modified cuvette holder. Absorption spectra were recorded on a PerkinElmer Lambda 950 UV-Vis-NIR spectrophotometer (Perkin Elmer, Waltham, Mass.). The dye-doped particle absorption at 785 nm was compared to a standard curve of absorption vs. ICG concentration to identify the apparent encapsulate content, not accounting for any matrix effects. Next, the release of the encapsulated fluorophore was induced with the addition of a 10:1 volume ratio of a 10^−3 M solution of ethylenediaminetetraacetic acid (EDTA) to the particle suspension. EDTA is a chelating agent that sequesters the divalent Ca^2+ ion from the nanostructure, dissolving the calcium phosphate particles. […]
Fluorescence spectra were recorded using an in-house spectroscopy system in which emitted radiation was collected at 90 degrees with a 10× microscope objective (N.A. 0.3) coupled into a fiber optic cable leading to the spectrometer (Ocean Optics HR-2000-USB). […]

[5] = test system: nude mice implanted with subcutaneous human breast adenocarcinoma tumors; test: In vivo NIR imaging: pharmacokinetic distribution and tumor localization; conditions: 24 hours post tail vein injection
Procedure: A NIR whole animal imaging approach was used to investigate the in vivo pharmacokinetic distribution of ICG-CPNPs in nude mice. […] Two different surface functionalities of CPNPs were evaluated, as-synthesized carboxylate surface termination (not shown) and particles surface functionalized with polyethylene glycol (PEG) (series iii). The in vivo behavior of the ICG-CPNP samples were compared to two controls: a sample of carboxylated ghost CPNPs without a fluorescent encapsulate (series i) and free ICG of equivalent absorption (series ii). […] The relatively short in vivo fluorescence of the free dye is attributed to fluorescence quenching of free ICG in physiological environments (Landsman, M. L. J.; Kwant, G.; Mook, G. A.; Zijlstra, W. G. Journal of Applied Physiology 1976, 40, (4), 575-583; Desmettre, T.; Devoisselle, J. M.; Mordon, S. Survey of Opthalmology 2000, 45, (1), 15-27; Simmons, R.; Shephard, R. J. Journal of Applied Physiology 1971, 30, (4), 502-507; Gathje, J.; Steuer, R. R.; Nicholes, K. R. K. Journal of Applied Physiology 1970, 29, (2), 181-185; Mordon, S.; Devoisselle, J. M.; Soulie-Begu, S.; Desmettre, T. Microvascular Research 1998, 55, (2), 146-152; Maarek, J. M. I.; Holschneider, D. P.; Harimoto, J. Journal of Photochemistry and Photobiology B-Biology 2001, 65, (2-3), 157-164) with rapid aggregation and clearance from the body. […]

[6] = Solvent protection (emission spectra in four bio-relevant solvents); assay type: physicochemical; conditions: water, DMEM, ethylene glycol, DMSO
Text: The chemical stability of the encapsulated fluorophore was experimentally verified by analyzing fluorescence spectra as a function of solvent environment. The effect of four bio-relevant solvents (water, Dulbecco's modified Eagle's medium (DMEM), ethylene glycol, and dimethylsulfoxide (DMSO)) on the free ICG dye is shown in FIG. 17A, with shifts in the normalized emission spectra dependent on the solvent environment. The maximum emission wavelengths have a standard deviation of 7.8 nm over an 18 nm spread. These peak values shift toward longer wavelengths due to a combination of general solvent influences and specific solvent effects, such as molecule-molecule interactions and hydrogen bonding. (Lakowicz, J. R., Principles of Fluorescence Spectroscopy. 3rd ed.; Springer: Baltimore, Md., 2006).
Fluorescence spectra were recorded using an in-house spectroscopy system in which emitted radiation was collected at 90 degrees with a 10× microscope objective (N.A. 0.3) coupled into a fiber optic cable leading to the spectrometer (Ocean Optics HR-2000-USB). A high power 785 nm diode laser (450 mW/cm^2) was used as the excitation source (RL785; Renishaw plc, Gloucestershire, UK). […] Aliquots of each were diluted 1:10 into the test solvent and kept in the dark. Measurements were conducted precisely 10 minutes after the sample introduction.

[7] = in methanol; cited from earlier work
[8] = Relative fluorescence quantum efficiency of Cy3; assay type: physicochemical; conditions: PBS, excitation 532 nm, reference Rhodamine 6G
Procedure: As a comparison of the free dye to the encapsulated dye, the relative fluorescence quantum efficiency (QE) was determined according to techniques in the literature. (Williams, A. T. R.; Winfield, S. A.; Miller, J. N. The Analyst 1983, 108, 1067-1071; Kubin, R. F.; Fletcher, A. N. Journal of Luminescence 1982, 27, 455-462). In brief, the integrated fluorescence signals of the free Cy3 and the Cy3-doped CPNPs in PBS were compared to a known reference standard with an excitation wavelength of 532 nm and the QE was calculated using a modified relationship from Lakowicz (Lakowicz, J. R., Principles of Fluorescence Spectroscopy. Third ed.; Springer Science and Business Media: New York, 2006; p 54),
[formula] where Φ, and ΦR are the QE for the sample and the reference respectively, M and Mr are the slopes of the integrated intensity versus absorption plots (FIG. 12A) and n is the refractive index of each solvent. Rhodamine 6G in ethanol was used as a reference with a quantum efficiency of 0.95. (Kubin, R. F.; Fletcher, A. N. Journal of Luminescence 1982, 27, 455-462). […] FIG. 12B exemplifies this enhancement in QE by comparing the fluorescence signal of the Cy3-doped CPNPs to a solution of Cy3 free dye with the same absorption at 532 nm. […]

[9] = Fluorescence correlation spectroscopy in DPBS (pH dependent dissolution); assay type: physicochemical; conditions: for Diffusion coefficient, average / RH (hydrodynamic radius), average: DPBS pH 4, free dye, average of ten measurements
Text: Fluorescence correlation spectroscopy was used to determine the solution phase behavior of the particles in order to better understand the particulate behavior in biologically-relevant solutions and to monitor only the fluorescing species. To this end we examined the free dye and the particles in DPBS (Dulbecco's phosphate buffered saline), at pH 7 and at pH 4. Low pH conditions mimicked the acidic environment of an endo-lysosome in which a particle would be enveloped during endocytosis.
FCS measurements were collected for free Cy3 dye at pH 4, Cy3-doped nanoparticles at pH 4 and pH 7 in DPBS. Sample autocorrelation curves are shown in FIG. 9, where a shift of the curve to the right (greater characteristic diffusion time) signifies a lower diffusion coefficient and a larger hydrodynamic radius. In this case, the diffusion time of free Cy3 dye molecules is 127 μs and that of the nanoparticles at pH 7 is 1311 μs. […] The corresponding hydrodynamic radii are RH=9.40±3.83 nm for the nanoparticles at pH 7, RH=0.76±0.09 nm for the nanoparticles at pH 4 and RH=0.75±0.06 nm for the free dye at pH 4. Similar results were obtained for the nanoparticles in DI water at pH 7 and pH 4 (data not shown). In addition to the diffusion data, the particle number concentration can be determined based on the number of particles that diffuse through the observation volume. The CPNP suspension has a particle number concentration of ˜6×10^14 particles/mL, based on these determinations.
The diffusion coefficients and their associated hydrodynamic radii for the ten measurements collected for each sample type (the nanoparticle samples at pH 7 and pH 4, and the Cy3 free dye at pH 4) are listed in Table S1.

Compound: CCCCCCCCCCCCC/C=C/[C@@H](O)[C@H](CO)NC(=O)CCCCCCCCC [Cer10 in DMSO, Decanoyl-ceramide]
- caspase 3/7 activity (apoptosis) [1]: not
- caspase 3/7 activity (apoptosis) [2]: not

- solubility (Solubility in water; water): > 40 mg/mL
Compound: O=C1OC2(c3ccc(O)cc3Oc3cc(O)ccc32)c2ccccc21 [fluorescein sodium salt]

Compound: CC1(C)C(/C=C/C=C/C=C/C=C2\N(CCCCS(=O)(=O)O)c3ccc4ccccc4c3C2(C)C)=[N+](CCCCS(=O)(=O)[O-])c2ccc3ccccc3c21 [free ICG, indocyanine green]
- quantum efficiency (per molecule) [3]: 0.028±0.001
- LD50 (animal subjects): 50 to 80 mg/kg
- concentration at which self-aggregation and loss of emission intensity occur [4]: 7 µM
- in vivo fluorescence signal [5]: no detectable signal; also recorded: No fluorescence signal is detected
- spread of maximum emission wavelengths over four solvents [6]: 18 nm

Compound: CN1C(=CC=CC=CC=CC2=[N+](C)c3ccccc3C2(C)C)C(C)(C)c2ccccc21.[I-] [hexamethylindotricarbocyanine (HITC), 1,1′,3,3,3′,3′-hexamethylindotricarbocyanine iodide]
- quantum yield of reference dye [7]: 0.28

- solubility in water (Solubility in water): < 0.05 mg/mL
- quantum efficiency ([8]; listed as Cy3 in free solution): 0.045
- quantum efficiency ([8]; listed as free Cy3 dye): 0.045±0.002
- Diffusion coefficient, average [9]: 2.90 × 10^−6 cm^2/s
- RH (hydrodynamic radius), average [9]: 0.751 nm
- Diffusion coefficient, average ([9]; listed as free Cy3 dye): 29.0±0.18×10^−7 cm^2/s
- RH (hydrodynamic radius), average ([9]; listed as free Cy3 dye): 0.75±0.06 nm
- diffusion time ([9]; sample autocorrelation curve, free dye pH 4): 127 μs
Compound: Cy3 amidite [Cy3 Dye]
